US7932262B2 (Novartis AG, priority 2006, dated 2011)

Tests used:
[1] = target: T1, PDK1 kinase (Homo sapiens, UniProt O15530); assay: PDK1 Kinase Alpha Screen Assay; assay type: biochemical; settings: read-out: PDK1 IC50
T1 sequence (O15530 1-556): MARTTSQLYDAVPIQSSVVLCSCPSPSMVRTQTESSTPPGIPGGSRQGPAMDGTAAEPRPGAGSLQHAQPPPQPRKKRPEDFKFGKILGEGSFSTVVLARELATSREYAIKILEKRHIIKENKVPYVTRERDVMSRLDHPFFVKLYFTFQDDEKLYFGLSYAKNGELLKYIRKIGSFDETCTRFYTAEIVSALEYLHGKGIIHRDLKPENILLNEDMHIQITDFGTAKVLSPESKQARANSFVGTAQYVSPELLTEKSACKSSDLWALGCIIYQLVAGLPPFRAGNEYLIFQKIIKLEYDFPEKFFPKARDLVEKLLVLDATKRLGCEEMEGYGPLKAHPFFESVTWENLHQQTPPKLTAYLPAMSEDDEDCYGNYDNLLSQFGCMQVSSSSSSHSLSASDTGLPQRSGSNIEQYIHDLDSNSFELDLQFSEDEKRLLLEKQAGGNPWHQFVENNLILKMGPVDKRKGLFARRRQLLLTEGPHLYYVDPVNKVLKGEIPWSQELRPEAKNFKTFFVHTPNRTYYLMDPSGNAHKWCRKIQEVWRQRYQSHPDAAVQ
Outline: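 Kinase inhibition measured as loss of AlphaScreen signal from antibody recognition of phosphorylated biotin-PDK1-4 peptide. Reactions contain 10 uM ATP and 50 nM peptide, run 3-18 hours before EDTA quench and overnight bead development at room temperature.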

[2] = tested on: A2780 cells; assay: Cell Proliferation Assay (Cell Titer Glo), A2780; assay type: cell-based; settings: Homo sapiens, 72 h; A2780 cells, 3 days incubation; read-out: CPEC50 A2780
Experimental: IV. Cell Proliferation Assay Protocol:
A2780, PC-3, or PC3MM cells were seeded at 1000 cells/well in 100 μL/well (10.000 cells/mL) growth media in 96-well plates. Cells were allowed to adhere to the bottom of plates for 3-5 hours in a 37° C. 5% CO2 incubator. Compounds were dissolved in DMSO and then transferred to the cell plates. The cells were incubated with the compounds for 3 days in a 37° C. 5% CO2 incubator. The growth medium containing the compounds was then removed from the cells and fresh medium was added, followed by 100 μL of Cell Titer Glo assay reagent (Promega). This mixture was shaken for 1 minute and then incubated without shaking for 10 minutes. Activity determinations for the compounds were made by detection on a Trilux Instrument.

IC50 [1] [µM] | EC50 [2] [µM] | SMILES
< 5 | 5 to 10 | NS(=O)(=O)c1ccc(Nc2ncc3cccc(C(=O)N4CCCC4)c3n2)cc1 [Compound 113, 4-[8-(Pyrrolidine-1-carbonyl)-quinazolin-2 ylamino]-benzenesulfonamide]
5 to 10 | < 5 | NS(=O)(=O)c1ccc(Nc2ncc3cccc(C(=O)NCCN4CCCC4)c3n2)cc1 [Compound 115, 2-(4-Sulfamoyl-phenylamino)-quinazoline-8-carboxylic acid (2-pyrrolidin-1-yl-ethyl)-amide]
10 to 25 | 5 to 10 | COCCN1CCN(C(=O)c2ccc3cnc(Nc4ccc(S(N)(=O)=O)cc4)nc3c2)CC1 [Compound 116, 4-{7-[4-(2-Methoxy-ethyl)-piperazine-1-carbonyl]-quinazolin-2-ylamino}-benzenesulfonamide]
10 to 25 | 5 to 10 | CC(C)N1CCN(C(=O)c2ccc3cnc(Nc4ccc(S(N)(=O)=O)cc4)nc3c2)CC1 [Compound 118, 4-[7-(4-Isopropyl-piperazine-1-carbonyl)-quinazolin-2-ylamino]-benzenesulfonamide]
< 5 | 5 to 10 | CN1CCC(NC(=O)c2ccc3cnc(Nc4ccc(S(N)(=O)=O)cc4)nc3c2)CC1 [Compound 119, 2-(4-Sulfamoyl-phenylamino)-quinazoline-7-carboxylic acid (1-methyl-piperidin-4-yl)-amide]
5 to 10 | 5 to 10 | NS(=O)(=O)c1ccc(Nc2ncc3cccc(C(=O)N4CCOCC4)c3n2)cc1 [Compound 120, 4-[8-(Morpholine-4-carbonyl)-quinazolin-2-ylamino]-benzenesulfonamide]
< 5 | 5 to 10 | CN1CCN(C(=O)c2cccc3cnc(Nc4ccc(S(N)(=O)=O)cc4)nc23)CC1 [Compound 121, 4-[8-(4-Methyl-piperazine-1-carbonyl)-quinazolin-2-ylamino]-benzenesulfonamide]
10 to 25 | 5 to 10 | NS(=O)(=O)c1ccc(Nc2ncc3cccc(C(=O)N4CCS(=O)(=O)CC4)c3n2)cc1 [Compound 122, 4-[8-(1,1-Dioxo-1lambda*6*- thiomorpholine-4-carbonyl)-quinazolin-2-ylamino]-benzenesulfonamide]
< 5 | 5 to 10 | NC(=O)c1cccc(-c2ccc3cnc(Nc4ccc(S(N)(=O)=O)cc4)nc3c2)c1 [Compound 123, 3-[2-(4-Sulfamoyl-phenylamino)-quinazolin-7-yl]-benzamide]
< 5 | 5 to 10 | NC(=O)c1ccc(-c2ccc3cnc(Nc4ccc(S(N)(=O)=O)cc4)nc3c2)cc1 [Compound 124, 4-[2-(4-Sulfamoyl-phenylamino)-quinazolin-7-yl]-benzamide]
< 5 | < 5 | NS(=O)(=O)c1ccc(Nc2ncc3ccc(-c4cn[nH]c4)cc3n2)cc1 [Compound 132, 4-[7-(1H-Pyrazol-4-yl)-quinazolin-2-ylamino]-benzenesulfonamide]
10 to 25 | 5 to 10 | CN1CCN(C(=O)c2ccc3cnc(Nc4ccc(S(N)(=O)=O)cc4)nc3c2)CC1 [Compound 135, 4-[7-(4-Methyl-piperazine-1-carbonyl)-quinazolin-2-ylamino]-benzenesulfonamide]
< 5 | 5 to 10 | NS(=O)(=O)c1ccc(Nc2ncc3ccc(-c4ccc(C(=O)N5CCOCC5)cc4)cc3n2)cc1 [Compound 139, 4-{7-[4-(Morpholine-4-carbonyl)-phenyl]-quinazolin-2-ylamino}-benzenesulfonamide]
< 5 | 5 to 10 | NS(=O)(=O)c1ccc(Nc2ncc3cccc(C(=O)NC4CCCNC4)c3n2)cc1 (centres unmarked) [Compound 140, 2-(4-Sulfamoyl-phenylamino)-quinazoline-8-carboxylic acid piperidin-3-ylamide]

Continued, compound first:

SMILES | IC50 [1] [µM] | EC50 [2] [µM]
NS(=O)(=O)c1ccc(Nc2ncc3cccc(-c4ccncc4)c3n2)cc1 [Compound 99, 4-(8-Pyridin-4-yl-quinazolin-2-ylamino)-benzenesulfonamide] | < 5 | 5 to 10
COCCNc1cc(-c2cccc3cnc(Nc4ccc(S(N)(=O)=O)cc4)nc23)ccn1 [Compound 100, 4-{8-[2-(2-Methoxy-ethylamino)-pyridin-4-yl]-quinazolin-2-ylamino}-benzenesulfonamide] | < 5 | < 5
CC(=O)NCCNc1cc(-c2cccc3cnc(Nc4ccc(S(N)(=O)=O)cc4)nc23)ccn1 [Compound 101, N-(2-{4-[2-(4-Sulfamoyl-phenylamino)-quinazolin-8-yl]-pyridin-2-ylamino}-ethyl)-acetamide] | < 5 | < 5
NS(=O)(=O)c1ccc(Nc2ncc3cccc(-c4ccnc(NCCN5CCCC5)c4)c3n2)cc1 [Compound 102, 4-{8-[2-(2-Pyrrolidin-1-yl-ethylamino)-pyridin-4-yl]-quinazolin-2-ylamino}-benzenesulfonamide] | < 5 | < 5
NS(=O)(=O)c1ccc(Nc2ncc3cccc(-c4cnoc4)c3n2)cc1 [Compound 103, 4-(8-Isoxazol-4-yl-quinazolin-2-ylamino)-benzenesulfonamide] | < 5 | < 5
NS(=O)(=O)c1ccc(Nc2ncc3cccc(-c4cn[nH]c4)c3n2)cc1 [Compound 104, 4-[8-(1H-Pyrazol-4-yl)-quinazolin-2-ylamino]-benzenesulfonamide] | < 5 | < 5
NS(=O)(=O)c1ccc(Nc2ncc3cccc(-c4ccnc(N5CCOCC5)c4)c3n2)cc1 [Compound 105, 4-[8-(2-Morpholin-4-yl-pyridin-4-yl)-quinazolin-2-ylamino]-benzenesulfonamide] | < 5 | 5 to 10
CN1CCN(c2cc(-c3cccc4cnc(Nc5ccc(S(N)(=O)=O)cc5)nc34)ccn2)CC1 [Compound 106, 4-{8-[2-(4-Methyl-piperazin-1-yl)-pyridin-4-yl]-quinazolin-2-ylamino}-benzenesulfonamide] | < 5 | < 5
NS(=O)(=O)c1ccc(Nc2ncc3cccc(-c4ccnc(N5CCS(=O)(=O)CC5)c4)c3n2)cc1 [Compound 107, 4-{8-[2-(1,1-Dioxo-1 lambda*6*-thiomorpholin-4-yl)-pyridin-4-yl]-quinazolin-2-ylamino}-benzenesulfonamide] | < 5 | < 5
NS(=O)(=O)c1ccc(Nc2ncc3cccc(-c4ccnc(N5CCNC(=O)C5)c4)c3n2)cc1 [Compound 108, 4-{8-[2-(3-Oxo-piperazin-1-yl)-pyridin-4-yl]-quinazolin-2-ylamino}-benzenesulfonamide] | < 5 | < 5
Nc1cc(-c2cccc3cnc(Nc4ccc(S(N)(=O)=O)cc4)nc23)ccn1 [Compound 109, 4-[8-(2-Amino-pyridin-4-yl)-quinazolin-2-ylamino]-benzenesulfonamide] | < 5 | 5 to 10
NS(=O)(=O)c1ccc(Nc2ncc3cccc(-c4ccccc4)c3n2)cc1 [Compound 110, 4-(8-Phenyl-quinazolin-2-ylamino)-benzenesulfonamide] | < 5 | < 5
NC(=O)c1ccc(-c2ccc3cnc(Nc4ccc(S(N)(=O)=O)cc4)nc3c2)cc1F [Compound 112, 2-Fluoro-4-[2-(4-sulfamoyl-phenylamino)-quinazolin-7-yl]-benzamide] | < 5 | 5 to 10
COCCNC(=O)c1cccc2cnc(Nc3ccc(S(N)(=O)=O)cc3)nc12 [Compound 114, 2-(4-Sulfamoyl-phenylamino)-quinazoline-8-carboxylic acid (2-methoxy-ethyl)-amide] | 5 to 10 | < 5
COc1cc(-c2cccc3cnc(Nc4ccc(S(N)(=O)=O)cc4)nc23)c(Cl)cn1 [Compound 117, 4-[8-(5-Chloro-2-methoxy-pyridin-4-yl)-quinazolin-2-ylamino]-benzenesulfonamide] | < 5 | < 5
Nc1ccc(-c2ccc3cnc(Nc4ccc(S(N)(=O)=O)cc4)nc3c2)cn1 [Compound 130, 4-[7-(6-Amino-pyridin-3-yl)-quinazolin-2-ylamino]-benzenesulfonamide] | < 5 | < 5
NC(=O)c1ccc(-c2ccc3cnc(Nc4ccc(S(N)(=O)=O)cc4)nc3c2)cn1 [Compound 131, 5-[2-(4-Sulfamoyl-phenylamino)-quinazolin-7-yl]-pyridine-2-carboxylic acid amide] | < 5 | 5 to 10
